Test results published in US10793580B2, “Substituted pyrazoloazepin-8-ones and their use as phosphodiesterase inhibitors” (LEO Pharma A/S, priority 2016, dated 2020).
Where two headings read alike, the source gives them in different places.

Target: human PDE4D catalytic domain (Homo sapiens (Human), UniProt Q08499)
Test: PDE4 Assay (TR-FRET, FAM-cAMP cleavage)
Type: biochemical
Settings: read-out: PDE4 IC50 range
In short: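 Readout is Tb-to-FAM time-resolved FRET after nanoparticle capture of AMP, the product of cleaving a cAMP/FAM-cAMP mixture by PDE4D catalytic domain (S380-L740) in the presence of titrated compound. Values are IC50 ranges in nM: concentration halving substrate cleavage relative to controls.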

[1] = human PDE4D catalytic domain (UniProt Q08499 [S380-L740]), 50% inhibition of substrate cleavage

Sequence of human PDE4D catalytic domain (Q08499 380-740): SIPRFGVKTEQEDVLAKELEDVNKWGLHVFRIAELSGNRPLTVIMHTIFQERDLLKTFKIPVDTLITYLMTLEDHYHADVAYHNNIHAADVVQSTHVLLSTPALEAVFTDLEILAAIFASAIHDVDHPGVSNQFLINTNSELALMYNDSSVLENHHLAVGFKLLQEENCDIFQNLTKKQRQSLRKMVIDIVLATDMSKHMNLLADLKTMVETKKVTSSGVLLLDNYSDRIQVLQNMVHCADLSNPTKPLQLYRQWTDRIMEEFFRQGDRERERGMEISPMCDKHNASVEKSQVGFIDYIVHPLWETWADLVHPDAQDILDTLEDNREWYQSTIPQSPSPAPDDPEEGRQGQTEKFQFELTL

SMILES | IC50 [1] [nM] | further results
CCn1nc(CCCOC(=O)c2cccc(C(=O)N3CCCCC3)c2)c2c1C(=O)NCC1(CCOCC1)C2 [Example 117, 3-(1-ethyl-8-oxo-spiro[6,7-dihydro-4H-pyrazolo[3,4-c]azepine-5,4′-tetrahydropyran]-3-yl)propyl 3-(piperidine-1-carbonyl)benzoate] | < 100 | –
CCn1nc(CC(C)(C)COC(=O)c2cocn2)c2c1C(=O)NCC1(CCOCC1)C2 [Example 297, [3-(1-ethyl-8-oxo-spiro[6,7-dihydro-4H-pyrazolo[3,4-c]azepine-5,4′-tetrahydro-pyran]-3-yl)-2,2-dimethyl-propyl] oxazole-4-carboxylate] | – | IC50 (Table 17, Examples 297-316): < 100 nM
CCn1nc(CCCOC(=O)c2cc(C(F)(F)F)ccc2Cl)c2c1C(=O)NCC1(CCOCC1)C2 [Example 91, 3-(1-ethyl-8-oxo-spiro[6,7-dihydro-4H-pyrazolo[3,4-c]azepine-5,4′-tetrahydro-pyran]-3-yl)propyl 2-chloro-5-(trifluoromethyl)benzoate] | < 100 | –
CCn1nc(CCCOC(=O)C2CCOCC2)c2c1C(=O)NCC1(CCOCC1)C2 [Example 246, 3-(1-ethyl-8-oxo-spiro[6,7-dihydro-4H-pyrazolo[3,4-c]azepine-5,4′-tetrahydropyran]-3-yl)propyl tetrahydropyran-4-carboxylate] | < 100 | –
CCn1nc(CCCOC(=O)c2ccc(S(=O)(=O)C(C)C)cc2)c2c1C(=O)NCC1(CCOCC1)C2 [Example 93, 3-(1-ethyl-8-oxo-spiro[6,7-dihydro-4H-pyrazolo[3,4-c]azepine-5,4′-tetrahydropyran]-3-yl)propyl 4-isopropylsulfonylbenzoate] | < 100 | –
CCn1nc(C[C@@H](C)COC(=O)CCSC)c2c1C(=O)NCC1(CCOCC1)C2 [Example 139, [(2R)-3-(1-ethyl-8-oxo-spiro[6,7-dihydro-4H-pyrazolo[3,4-c]azepine-5,4′-tetrahydropyran]-3-yl)-2-methyl-propyl] 3-methylsulfanylpropanoate] | < 100 | –
CCn1nc(C[C@@H](C)COC(=O)c2ccc(S(=O)(=O)N3CCN(C(C)=O)CC3)cc2)c2c1C(=O)NCC1(CCOCC1)C2 [Example 167, [(2R)-3-(1-ethyl-8-oxo-spiro[6,7-dihydro-4H-pyrazolo[3,4-c]azepine-5,4′-tetrahydropyran]-3-yl)-2-methyl-propyl] 4-(4-acetylpiperazin-1-yl)sulfonylbenzoate] | < 100 | –
CCn1nc(C[C@@H](C)COC(=O)c2ccc(C(=O)NC)cc2)c2c1C(=O)NCC1(CCOCC1)C2 [Example 170, [(2R)-3-(1-ethyl-8-oxo-spiro[6,7-dihydro-4H-pyrazolo[3,4-c]azepine-5,4′-tetrahydropyran]-3-yl)-2-methyl-propyl] 4-(methylcarbamoyl)benzoate] | < 100 | –
CCn1nc(CCCOC(=O)C2CCN(C(=O)N(C)C)CC2)c2c1C(=O)NCC1(CCOCC1)C2 [Example 264, 3-(1-ethyl-8-oxo-spiro[6,7-dihydro-4H-pyrazolo[3,4-c]azepine-5,4′-tetrahydro-pyran]-3-yl)propyl 1-(dimethyl-carbamoyl)piperidine-4-carboxylate] | < 100 | –
CCn1nc(C[C@@H](C)COC(=O)C2CCN(C(=O)OC)CC2)c2c1C(=O)NCC1(CCOCC1)C2 [Example 295, [(2R)-3-(1-ethyl-8-oxo-spiro[6,7-dihydro-4H-pyrazolo-[3,4-c]azepine-5,4′-tetrahydro-pyran]-3-yl)-2-methyl-propyl] 1-methoxycarbonylpiperidine-4-carboxylate] | – | IC50 (Table 16, Examples 277-296): < 100 nM
CCn1nc(CC(C)(C)COC(=O)c2ccc(C(N)=O)cc2)c2c1C(=O)NCC1(CCOCC1)C2 [Example 218, [3-(1-ethyl-8-oxo-spiro[6,7-dihydro-4H-pyrazolo[3,4-c]azepine-5,4′-tetrahydropyran]-3-yl)-2,2-dimethyl-propyl] 4-carbamoylbenzoate] | < 100 | –
CCn1nc(CC(C)(C)COC(=O)c2cccc(C(=O)N3CCCC3)c2)c2c1C(=O)NCC1(CCOCC1)C2 [Example 230, [3-(1-ethyl-8-oxo-spiro[6,7-dihydro-4H-pyrazolo[3,4-c]azepine-5,4′-tetrahydro-pyran]-3-yl)-2,2-dimethyl-propyl] 3-(pyrrolidine-1-carbonyl)benzoate] | < 100 | –
CCn1nc(CC(C)(C)COC(=O)c2cccc(S(=O)(=O)CC)c2)c2c1C(=O)NCC1(CCOCC1)C2 [Example 204, [3-(1-ethyl-8-oxo-spiro[6,7-dihydro-4H-pyrazolo[3,4-c]azepine-5,4′-tetrahydropyran]-3-yl)-2,2-dimethyl-propyl] 3-ethylsulfonylbenzoate] | < 100 | –
CCn1nc(C[C@@H](C)COC(=O)c2ccc(S(=O)(=O)C3CCCC3)cc2)c2c1C(=O)NCC1(CCOCC1)C2 [Example 162, [(2R)-3-(1-ethyl-8-oxo-spiro[6,7-dihydro-4H-pyrazolo[3,4-c]azepine-5,4′-tetrahydropyran]-3-yl)-2-methyl-propyl] 4-cyclopentylsulfonylbenzoate] | < 100 | –
CCc1nc(C(=O)OCCCc2nn(CC)c3c2CC2(CCOCC2)CNC3=O)cs1 [Example 260, 3-(1-ethyl-8-oxo-spiro[6,7-dihydro-4H-pyrazolo[3,4-c]azepine-5,4′-tetrahydropyran]-3-yl)propyl 2-ethylthiazole-4-carboxylate] | < 100 | –
CCn1nc(CCCCOC(=O)C2CCN(C(C)=O)CC2)c2c1C(=O)NCC1(CCOCC1)C2 [Example 274, 4-(1-ethyl-8-oxo-spiro[6,7-dihydro-4H-pyrazolo[3,4-c]azepine-5,4′-tetrahydropyran]-3-yl)butyl 1-acetylpiperidine-4-carboxylate] | < 100 | –
CCn1nc(CCCOC(=O)c2ccc(Cl)cc2C)c2c1C(=O)NCC1(CCOCC1)C2 [Example 43, 3-(1-ethyl-8-oxo-spiro[6,7-dihydro-4H-pyrazolo[3,4-c]azepine-5,4′-tetrahydropyran]-3-yl)propyl 4-chloro-2-methyl-benzoate] | < 100 | –
CCn1nc(CCCOC(=O)c2ccc(F)cc2C(F)(F)F)c2c1C(=O)NCC1(CCOCC1)C2 [Example 71, 3-(1-ethyl-8-oxo-spiro[6,7-dihydro-4H-pyrazolo[3,4-c]azepine-5,4′-tetrahydro-pyran]-3-yl)propyl 4-fluoro-2-(trifluoromethyl)benzoate] | < 100 | –
CCn1nc(CCCCOC(=O)c2ccc(F)cc2)c2c1C(=O)NCC1(CCOCC1)C2 [Example 124, 4-(1-ethyl-8-oxo-spiro[6,7-dihydro-4H-pyrazolo[3,4-c]azepine-5,4′-tetrahydropyran]-3-yl)butyl 4-fluorobenzoate] | < 100 | –
CCn1nc(CC(C)(C)COC(=O)c2cccc(F)c2)c2c1C(=O)NCC1(CCOCC1)C2 [Example 191, [3-(1-ethyl-8-oxo-spiro[6,7-dihydro-4H-pyrazolo[3,4-c]azepine-5,4′-tetrahydropyran]-3-yl)-2,2-dimethyl-propyl] 3-fluorobenzoate] | < 100 | –
CCn1nc(CCCCOC(=O)C2CCOCC2)c2c1C(=O)NCC1(CCOCC1)C2 [Example 270, 4-(1-ethyl-8-oxo-spiro[6,7-dihydro-4H-pyrazolo[3,4-c]azepine-5,4′-tetrahydropyran]-3-yl)butyl tetrahydropyran-4-carboxylate] | < 100 | –
CCn1nc(CCCOC(=O)c2cccc(S(N)(=O)=O)c2)c2c1C(=O)NCC1(CCOCC1)C2 [Example 66, 3-(1-ethyl-8-oxo-spiro[6,7-dihydro-4H-pyrazolo[3,4-c]azepine-5,4′-tetrahydropyran]-3-yl)propyl 3-sulfamoylbenzoate] | < 100 | –
CCn1nc(CCCOC(=O)c2ccc(Cl)cc2)c2c1C(=O)NCC1(CCOCC1)C2 [Example 22, 3-(1-ethyl-8-oxo-spiro[6,7-dihydro-4H-pyrazolo[3,4-c]azepine-5,4′-tetrahydropyran]-3-yl)propyl 4-chlorobenzoate] | < 100 | –
CCn1nc(CCCOC(=O)c2cccc(C(N)=O)c2)c2c1C(=O)NCC1(CCOCC1)C2 [Example 113, 3-(1-ethyl-8-oxo-spiro[6,7-dihydro-4H-pyrazolo[3,4-c]azepine-5,4′-tetrahydropyran]-3-yl)propyl 3-carbamoylbenzoate] | < 100 | –
CCn1nc(CCCOC(=O)c2ccc(OC)c(Cl)c2)c2c1C(=O)NCC1(CCOCC1)C2 [Example 58, 3-(1-ethyl-8-oxo-spiro[6,7-dihydro-4H-pyrazolo[3,4-c]azepine-5,4′-tetrahydropyran]-3-yl)propyl 3-chloro-4-methoxy-benzoate] | < 100 | –
CCn1nc(CC(C)(C)COC(=O)c2cccc(C(N)=O)c2)c2c1C(=O)NCC1(CCOCC1)C2 [Example 227, [3-(1-ethyl-8-oxo-spiro[6,7-dihydro-4H-pyrazolo[3,4-c]azepine-5,4′-tetrahydropyran]-3-yl)-2,2-dimethyl-propyl] 3-carbamoylbenzoate] | < 100 | –
CCn1nc(CCCOC(=O)c2cc(OC)cc(C(F)(F)F)c2)c2c1C(=O)NCC1(CCOCC1)C2 [Example 82, 3-(1-ethyl-8-oxo-spiro[6,7-dihydro-4H-pyrazolo[3,4-c]azepine-5,4′-tetrahydropyran]-3-yl)propyl 3-methoxy-5-(trifluoromethyl)benzoate] | < 100 | –
CCn1nc(CC(C)(C)COC(=O)CCSC)c2c1C(=O)NCC1(CCOCC1)C2 [Example 187, [3-(1-ethyl-8-oxo-spiro[6,7-dihydro-4H-pyrazolo[3,4-c]azepine-5,4′-tetrahydropyran]-3-yl)-2,2-dimethyl-propyl] 3-methylsulfanylpropanoate] | < 100 | –
CCn1nc(C[C@@H](C)COC(=O)c2cnc(C)nc2)c2c1C(=O)NCC1(CCOCC1)C2 [Example 288, [(2R)-3-(1-ethyl-8-oxo-spiro[6,7-dihydro-4H-pyrazolo[3,4-c]azepine-5,4′-tetrahydropyran]-3-yl)-2-methyl-propyl] 2-methylpyrimidine-5-carboxylate] | – | IC50 (Table 16, Examples 277-296): < 100 nM
